# Measurements taken from patent publication US6943147B2, “Cancer treatment using proANP peptides” (University of South Florida, priority 2003, dated 2005).
# Test system: human pancreatic adenocarcinomas
# Test: Growth of human pancreatic adenocarcinomas in vivo in athymic mice
# Parameters: species or system NCr athymic nude mice
# Text: The animals used in the whole animal studies were NCr athymic nude mice. The NCr athymic outbred stock is the standard athymic model for National Cancer Institute (NCI) studies as well as many pharmaceutical and institutional oncology screening programs. The nude gene in homozygous (nu/nu) mice causes the lack of fur and an abnormal thymus. The deficiency in T cell function allows athymic mice to accept and grow xenografts as well as allograftsof normal and malignant tissues. Heterozygous (nu/+) animals carry the recessive nude gene on one chromosome only and therefore have a normal thymus triggered immune system. NCr-nu breeder stock was obtained from the NCI in 1993 after several years of random breeding. It was hysterectomy derived to achieve germfree status prior to its introduction into IBU colonies. This outbred stock has both BALB/c inbred and NIH(S) outbred stock in its genetic background. The homozygotes (nu/nu) used for the proposed investigations are albino animals with the model number of NCRNU-M from […] also being called Tac:Cr:(NCr)-Foxn1^nu: Six week old nude mice were utilized for these studies as they weight approximately 20 grams at this time period and the subcutaneous pumps used to infuse the respective four atrial natriuretic peptides were designed for 20 gram and larger mice. These mice accept malignant tissues. After one week of accliminization to their new surroundings, the mice have 1×10^6 of the adenocarcinoma cells placed under the skin on their backs. […] Tumor volume was calculated by the formula V (volume)=a×b^2/2 where “a” is the largest superficial diameter and b is the smallest superficial diameter. […] When the tumors first became palpable their volume was recorded and then an osmotic pump (Alzet Model 1002) containing either 0.9% saline (control infusion) or one of the respective peptide hormones in 0.9% saline was placed subcutaneously between the shoulder blades under anesthesia (pentobarbital 40 mg/kg body wt intraperitoneally). […]
substance,measurement,setting,value
vessel dilator: a.a. 31-67 of the 126 a.a. ANP prohormone; peptide hormone from Peninsula Laboratories,side effects,139 ng/min/kg infusion in whole animals,no side effects
same,growth of the human adenocarcinomas,"139 ng/min/kg of body weight, subcutaneous infusion pump, 14 days, n=14",stopped the growth
same,change in tumor volume during the two weeks of infusion,"139 ng/min/kg, 14 days, saline-treated increased 100 mm^3",no increase in volume
